Assay results taken from patent US5705662A, “17-(3-imino-2-alkylpropenyl)-5β, 14β-androstane derivatives active on the cardiovascular system, processes for their preparation and pharmaceutical compositions containing same” (Sigma-Tau Industrie Farmaceutiche Riunite S.p.A., priority 1994, dated 1998).

Assays:
Na^+,K^+ -ATPase [1] = target: T1, Na^+,K^+ -ATPase (Canis lupus familiaris, UniProt P50997); experiment: displacement of the specific 3H-ouabain binding from the purified Na+,K+-ATPase receptor; conditions: 3H-ouabain displacement, purified Na+,K+-ATPase; read-out: Binding ^3 H-Ouab. Displacement log IC50 (converted)
T1 construct: Na^+,K^+ -ATPase receptor purified according to Jorghensen; from tissue
From the text: (§1) To test the affinity for the receptor site of the Na^+,K^+ -ATPase and the agonist or antagonist activity on the enzyme, the following tests were used:
a) displacement of the specific ^3 H-ouabain binding from the Na^+,K^+ -ATPase receptor purified according to Jorghensen (Jorghensen P., BBA. 1974, 356, 36) and Erdmann (Erdmann E. et al., Arzneim. Forsh., 1984, 34, 1314);

Na^+,K^+ -ATPase [2] = target: T1, Na^+,K^+ -ATPase; experiment: inhibition of the activity of the purified Na+,K+-ATPase (% hydrolysis of 32P-ATP); format: biochemical; conditions: purified Na+,K+-ATPase, 32P-ATP hydrolysis; read-out: Inhibitory Activity log IC50 (converted)
From the text: as §1
b) inhibition of the activity of the purified Na^+,K^+ -ATPase measured as % of hydrolysis of ^32 P-ATP in presence and in absence of the tested compound (Doucet A. et al. Am. J. Physiol., 1986, 251, F851)

[3] = effect of 5 week-treatment on the development of hypertension in MHS rats (SBP and HR, tail cuff method); format: in vivo, rat (MHS); conditions: 10 mg/Kg/os daily in Methocel 0.5% w/v, 5 weeks, controls 375 +/- 7.3
Protocol: (§2) Systolic blood pressure (SBP) and heart rate (HR) were measured. by the tail cuff method, in young prehypertensive male rats (MHS or SHR) strains before the development of hypertension (4 weeks of age) for recording the basal values of SBP. Groups of 7 rats were formed and subdivided in control and treated groups. The compound, suspended in Methocel 0.5 % (w/v). was orally given daily for at least 5 weeks to the treated groups. The control group received only Methocel.
(§3) SBP and HR were measured weekly 6 and 24 hrs after treatment. After 5 weeks of treatment, when hypertension was fully developed in the control group (9 weeks of age), washout was started for at least one week, to verify whether the treatment maintained blood pressure low or reestablished the basal values. […] (Takeda K. et al., Japan J. Pharmacol., 1979, 29,171: Takeda K. et al. Japan J. Pharmacol., 1982, 32, 283; Richer C. et al. Eur. J. Pharmacol, 1978, 47,393).

[4] = test system: spontaneous hypertensive rats (MHS); experiment: as above; format: in vivo, rat (MHS); conditions: 10 mg/Kg/os daily in Methocel 0.5% w/v, 5 weeks, controls 171 +/- 4.5
Protocol: as §2, §3

Na^+,K^+ -ATPase [5] = conditions: J. Med. Chem. 1978, 21, 284; Quant. Struct.-Act. Relat. 1988, 7, 160; DE 4,227,605; DE 4,227,626; cited from earlier work
[6] = J. Med. Chem. 1978, 21, 284; Quant. Struct.-Act. Relat. 1988, 7, 160; cited from earlier work

Structure (SMILES)	IC50 (Na^+,K^+ -ATPase [1]) [µM]	IC50 (Na^+,K^+ -ATPase [2]) [µM]	HR [3]	SBP [4]	inhibition of Na+,K+-ATPase (in words) (Na^+,K^+ -ATPase [5])	positive inotropic activity (in words) [6]
CC(/C=N/OCCN)=C\[C@H]1CC[C@]2(O)[C@@H]3CC[C@@H]4C[C@@H](O)CC[C@]4(C)[C@H]3CC[C@]12C [Comp. I-af, (E,E)-17β-[3-(2-Aminoethoxyimino)-2-methyl-1-propenyl]-5β-androstone-3β,14β-diol]	0.02	0.0316	380 +/- 3.9 beats/min.	146 +/- 6.1 mm Hg		
CC(/C=N/NC(=N)N)=C\[C@H]1CC[C@]2(O)[C@@H]3CC[C@@H]4C[C@@H](O)CC[C@]4(C)[C@H]3CC[C@]12C [Comp. I-aa, (E,E)-17β-(3-Guanidinoimino-2-methyl-1-propenyl)-5β-androstane-3β,14β-diol]	0.0316	0.251	374 +/- 9.5 beats/min.	148 +/- 5.7 mm Hg		
C[C@]12CC[C@H](O)C[C@H]1CC[C@@H]1[C@@H]2CC[C@]2(C)[C@@H](C=NNC(=N)N)CC[C@]12O [17β-guanidinoiminomethyl-5β-androstane-3β,14β-diol]					weak inhibitors of Na^+,K^+ -ATPase	weak positive inotropic agents
